Assay in all cases: Antibacterial activity, microbroth dilution method (MIC)
(In general: Broth dilution looks for growth in wells or tubes with falling amounts of substance.)

Experiment [1] has as its system control Gram-negative E. coli 25922 strain. Format: cell-based, Escherichia coli. To be noted: Escherichia coli. The essentials: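 Using broth microdilution, MIC endpoints (μg/mL) mark where visible growth no longer appears; the panel spans sensitive and control Gram-negative strains plus a Gram-positive strain.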
The test system of experiment [2] is Gram-positive Staphylococcus aureus (S. aureus) 29213. In kind it is cell-based. To be noted: Staphylococcus aureus, Gram-positive S. aureus 29213. Summed up:
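Broth microdilution; endpoint = no macroscopic growth; value = lowest inhibiting concn, μg/mL.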

Experiment [3] relates to super sensitive Gram-negative Escherichia coli (E. coli) BAS849. Format: cell-based. The following applies: Escherichia coli; super sensitive Gram-negative E. coli BAS849; microbroth dilution; read-out: MIC, E. coli BAS849. Summed up: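 Potency is reported as minimum inhibitory concentration in μg/mL, determined by broth microdilution as the lowest level of compound that stops growth visible to the eye.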

Structures are written as SMILES. Values after ≈ are worked out from the molar mass of the structure shown. Structures can show the parent of a compound that is named as a salt.

As a reminder, the MIC is the least concentration at which growth counts as inhibited. As to `CCCCCCNCc1cc2cc3c(cc2n1C)CCCc1c-3[nH]c(=O)c(C(=O)O)c1O.Cl` [Cpd 138, 10-((hexylamino)methyl)-4-hydroxy-9-methyl-2-oxo-1,2,5,6,7,9-hexahydropyrido[3′,2′:6,7]cyclohepta[1,2-f]indole-3-carboxylic acid hydrochloride], the MIC in experiment [1] is 1 to 3.5 µg/mL; in experiment [2], 1 to 3.5 µg/mL; in experiment [3] it was less than 1 µg/mL.
Regarding `CN(C)c1ccc2c(c1)CCCCc1cc(C(=O)O)c(=O)[nH]c1-2` [Cpd 4, 10-(dimethylamino)-2-oxo-1,2,5,6,7,8-hexahydrobenzo[7,8]cycloocta[1,2-b]pyridine-3-carboxylic acid], the MIC in experiment [1] was 12.5 to 150 µg/mL (≈ 40 to 480 µM); in experiment [2] it was 12.5 to 150 µg/mL (≈ 40 to 480 µM); in experiment [3] it was less than 1 µg/mL.
In the case of `CN(C)C1CCN(c2ccc3c(c2)OCCc2c-3[nH]c(=O)c(C(=O)O)c2O)C1.Cl` (stereo not drawn) [Cpd 78, 9-(3-(dimethylamino)pyrrolidin-1-yl)-4-hydroxy-2-oxo-1,2,5,6-tetrahydrobenzo[2,3]oxepino[4,5-b]pyridine-3-carboxylic acid hydrochloride], the MIC in experiment [1] fell in the range of 12.5 to 150 µg/mL; in experiment [2], 12.5 to 150 µg/mL; in experiment [3] it was 1 to 3.5 µg/mL.
Regarding `COc1ccc(CNCc2cc3cc4c(cc3n2C)OCCc2c-4[nH]c(=O)c(C(=O)O)c2O)c(OC)c1.Cl` [Cpd 170, 10-(((2,4-dimethoxybenzyl)amino)methyl)-4-hydroxy-9-methyl-2-oxo-2,5,6,9-tetrahydro-1H-pyrido[2′,3′:4,5]oxepino[3,2-f]indole-3-carboxylic acid hydrochloride], the MIC in experiment [1] is 1 to 3.5 µg/mL; in experiment [2] it was 1 to 3.5 µg/mL; in experiment [3], less than 1 µg/mL.
Regarding `Cl.Cn1c(CN2CCC(O)C2)cc2cc3c(cc21)CCCc1c-3[nH]c(=O)c(C(=O)O)c1O` (stereo not drawn) [Cpd 51, 4-hydroxy-10-((3-hydroxypyrrolidin-1-yl)methyl)-9-methyl-2-oxo-1,2,5,6,7,9-hexahydropyrido[3′,2′:6,7]cyclohepta[1,2-f]indole-3-carboxylic acid hydrochloride], the MIC in experiment [1] was 1 to 3.5 µg/mL; in experiment [2], 3.5 to 12.5 µg/mL; in experiment [3] it was less than 1 µg/mL.
With `CNCCNCc1cc2cc3c(cc2n1C)CCCc1c-3[nH]c(=O)c(C(=O)O)c1O.Cl.Cl` [Cpd 143, 4-hydroxy-9-methyl-10-(((2-(methylamino)ethyl)amino)methyl)-2-oxo-1,2,5,6,7,9-hexahydropyrido[3′,2′:6,7]cyclohepta[1,2-f]indole-3-carboxylic acid dihydrochloride], the MIC is 12.5 to 150 µg/mL in experiment [1], 12.5 to 150 µg/mL in experiment [2] and 3.5 to 12.5 µg/mL in experiment [3].
As for `Cl.Cn1c(CN2CCC2)cc2cc3c(cc21)CCCc1c-3[nH]c(=O)c(C(=O)O)c1O` [Cpd 24, 10-(azetidin-1-ylmethyl)-4-hydroxy-9-methyl-2-oxo-1,2,5,6,7,9-hexahydropyrido[3′,2′:6,7]cyclohepta[1,2-f]indole-3-carboxylic acid hydrochloride], the MIC in experiment [1] was less than 1 µg/mL; in experiment [2] it was 3.5 to 12.5 µg/mL; in experiment [3], less than 1 µg/mL.
For the compound `O=C(O)c1cc2c([nH]c1=O)-c1ccc(N3CCCC3)cc1OCC2` [Cpd 81, 2-oxo-9-(pyrrolidin-1-yl)-1,2,5,6-tetrahydrobenzo[2,3]oxepino[4,5-b]pyridine-3-carboxylic acid], the figures for the MIC in experiment [1], in experiment [2] and in experiment [3] were 12.5 to 150 µg/mL (≈ 38.3 to 460 µM), 12.5 to 150 µg/mL (≈ 38.3 to 460 µM) and less than 1 µg/mL, respectively.
As for `CN1CCC2CN(Cc3cc4cc5c(cc4n3C)CCCc3c-5[nH]c(=O)c(C(=O)O)c3O)CC21.Cl.Cl` (stereo not drawn) [Cpd 162, 4-hydroxy-9-methyl-10-((1-methylhexahydropyrrolo[3,4-b]pyrrol-5(1H)-yl)methyl)-2-oxo-1,2,5,6,7,9-hexahydropyrido[3′,2′:6,7]cyclohepta[1,2-f]indole-3-carboxylic acid dihydrochloride], the MIC in experiment [1] is 3.5 to 12.5 µg/mL; in experiment [2] it was 12.5 to 150 µg/mL; in experiment [3], less than 1 µg/mL.
In the same order, the values of `CCNCc1cc2cc3c(cc2n1C)OCCc1c-3[nH]c(=O)c(C(=O)O)c1O.Cl` [Cpd 89, 10-((ethylamino)methyl)-4-hydroxy-9-methyl-2-oxo-2,5,6,9-tetrahydro-1H-pyrido[2′,3′:4,5]oxepino[3,2-f]indole-3-carboxylic acid hydrochloride] are less than 1 µg/mL, 12.5 to 150 µg/mL and less than 1 µg/mL.
As for `Cl.Cn1c(CN)cc2cc3c(cc21)CCCc1c-3[nH]c(=O)c(C(=O)O)c1O` [Cpd 35, 10-(aminomethyl)-4-hydroxy-9-methyl-2-oxo-1,2,5,6,7,9-hexahydropyrido[3′,2′:6,7]cyclohepta[1,2-f]indole-3-carboxylic acid hydrochloride], the results for the MIC in experiment [1], in experiment [2] and in experiment [3] were 1 to 3.5 µg/mL, 3.5 to 12.5 µg/mL and less than 1 µg/mL, respectively.
For `Cl.Cn1c(CN2CCCC2)cc2cc3c(cc21)OCCc1c-3[nH]c(=O)c(C(=O)O)c1O` [Cpd 174, 4-hydroxy-9-methyl-2-oxo-10-(pyrrolidin-1-ylmethyl)-2,5,6,9-tetrahydro-1H-pyrido[2′,3′:4,5]oxepino[3,2-f]indole-3-carboxylic acid hydrochloride], the MIC in experiment [1] is 1 to 3.5 µg/mL; in experiment [2], 12.5 to 150 µg/mL; in experiment [3], less than 1 µg/mL.
For `N[C@@H]1[C@H]2CN(c3ccc4c(c3)OCCc3c-4[nH]c(=O)c(C(=O)O)c3O)C[C@@H]12` [Cpd 80, 9-((cis,cis)-6-amino-3-azabicyclo[3.1.0]hexan-3-yl)-4-hydroxy-2-oxo-1,2,5,6-tetrahydrobenzo[2,3]oxepino[4,5-b]pyridine-3-carboxylic acid hydrochloride] the same measures were 1 to 3.5 µg/mL, 12.5 to 150 µg/mL and less than 1 µg/mL.
For `CNCc1cc2cc3c(cc2n1C)CCCc1cc(C(=O)O)c(=O)[nH]c1-3.Cl` [Cpd 53, 9-methyl-10-((methylamino)methyl)-2-oxo-1,2,5,6,7,9-hexahydropyrido[3′,2′:6,7]cyclohepta[1,2-f]indole-3-carboxylic acid hydrochloride] the same measures were 1 to 3.5 µg/mL, 12.5 to 150 µg/mL and less than 1 µg/mL.
In the same order, the values of `CCNCc1cc2cc3c(cc2n1C)C(C)=CCc1c-3[nH]c(=O)c(C(=O)O)c1O.Cl` [Cpd 70, 10-((ethylamino)methyl)-4-hydroxy-7,9-dimethyl-2-oxo-1,2,5,9-tetrahydropyrido[3′,2′:6,7]cyclohepta[1,2-f]indole-3-carboxylic acid hydrochloride] are 3.5 to 12.5 µg/mL, 3.5 to 12.5 µg/mL and 3.5 to 12.5 µg/mL.
In the case of `CCNCc1cc2cc3c(cc2n1C)CCCCc1c-3[nH]c(=O)c(C(=O)O)c1O.Cl` [Cpd 59, 11-((ethylamino)methyl)-4-hydroxy-10-methyl-2-oxo-2,5,6,7,8,10-hexahydro-1H-pyrido[3′,2′:7,8]cycloocta[1,2-f]indole-3-carboxylic acid hydrochloride], the values for the MIC in experiment [1], in experiment [2] and in experiment [3] were less than 1 µg/mL, 3.5 to 12.5 µg/mL and less than 1 µg/mL, respectively.
Take `Cl.O=C(O)c1c(O)c2c([nH]c1=O)-c1ccc(N3CCC4(CNC4)C3)cc1CCC2` [Cpd 121, 4-hydroxy-2-oxo-9-(2,6-diazaspiro[3.4]octan-6-yl)-2,5,6,7-tetrahydro-1H-benzo[6,7]cyclohepta[1,2-b]pyridine-3-carboxylic acid hydrochloride]: the MIC in experiment [1] lay within 12.5 to 150 µg/mL; in experiment [2], 12.5 to 150 µg/mL; in experiment [3] it was 3.5 to 12.5 µg/mL.
Turning to `CC1COc2cc(N3CCC(N(C)C)C3)ccc2-c2[nH]c(=O)c(C(=O)O)c(O)c21.Cl` (stereo not drawn) [Cpd 84, 9-(3-(dimethylamino)pyrrolidin-1-yl)-4-hydroxy-5-methyl-2-oxo-1,2,5,6-tetrahydrobenzo[2,3]oxepino[4,5-b]pyridine-3-carboxylic acid hydrochloride], the figures for the MIC in experiment [1], in experiment [2] and in experiment [3] were 12.5 to 150 µg/mL, 12.5 to 150 µg/mL and 1 to 3.5 µg/mL, respectively.
Take `CN(C)C(=O)CNCc1cc2cc3c(cc2n1C)CCCc1c-3[nH]c(=O)c(C(=O)O)c1O.Cl` [Cpd 163, 10-(((2-(dimethylamino)-2-oxoethyl)amino)methyl)-4-hydroxy-9-methyl-2-oxo-1,2,5,6,7,9-hexahydropyrido[3′,2′:6,7]cyclohepta[1,2-f]indole-3-carboxylic acid hydrochloride]: the MIC in experiment [1] was 3.5 to 12.5 µg/mL; in experiment [2], 12.5 to 150 µg/mL; in experiment [3] it was less than 1 µg/mL.
For `Cl.Cn1c(CNC(C)(C)C)cc2cc3c(cc21)CCCc1cc(C(=O)O)c(=O)[nH]c1-3` [Cpd 56, 10-((tert-butylamino)methyl)-9-methyl-2-oxo-1,2,5,6,7,9-hexahydropyrido[3′,2′:6,7]cyclohepta[1,2-f]indole-3-carboxylic acid hydrochloride] the same measures were 1 to 3.5 µg/mL, 12.5 to 150 µg/mL and less than 1 µg/mL.
For `O=C(O)c1c(O)c2c([nH]c1=O)-c1ccc(N3CCCC3)cc1CCCC2` [Cpd 126, 4-hydroxy-2-oxo-10-(pyrrolidin-1-yl)-1,2,5,6,7,8-hexahydrobenzo[7,8]cycloocta[1,2-b]pyridine-3-carboxylic acid], the MIC is 12.5 to 150 µg/mL (≈ 35.3 to 423 µM) in experiment [1], 1 to 3.5 µg/mL (≈ 2.82 to 9.88 µM) in experiment [2] and less than 1 µg/mL in experiment [3].
In the same order, the values of `CN(C)Cc1cc2cc3c(cc2n1C)CCCc1c-3[nH]c(=O)c(C(=O)O)c1O.Cl` [Cpd 48, 10-((dimethylamino)methyl)-4-hydroxy-9-methyl-2-oxo-1,2,5,6,7,9-hexahydropyrido[3′,2′:6,7]cyclohepta[1,2-f]indole-3-carboxylic acid hydrochloride] are less than 1 µg/mL, 3.5 to 12.5 µg/mL and less than 1 µg/mL.
As for `CN(C)C1CCCN(c2ccc3c(c2)CCCc2c-3[nH]c(=O)c(C(=O)O)c2O)C1.Cl` (stereo not drawn) [Cpd 117, 9-(3-(dimethylamino)piperidin-1-yl)-4-hydroxy-2-oxo-2,5,6,7-tetrahydro-1H-benzo[6,7]cyclohepta[1,2-b]pyridine-3-carboxylic acid hydrochloride], the MIC was 12.5 to 150 µg/mL in experiment [1], 12.5 to 150 µg/mL in experiment [2] and 3.5 to 12.5 µg/mL in experiment [3].
